Laboratory results: publication PMC5626944 (Frontiers in Pharmacology, 2017)

Columns and labels:
Serotonin, 5HT3 = tested on: T1, Serotonin, 5HT3; test: NovaScreen competition binding; parameters: species or system mouse; settings: 1 µM
T1 construct: endogenous in cells; host or cells: N1E-115 (mouse neuroblastoma)
From the text: Assays included the nicotinic drug [^3H]epibatidine binding to α-bungarotoxin-insensitive nAChRs, the 5-HT3 inhibitor [N-methyl-^3H]GR65630 to mouse receptors in N1E-115 cells, and human receptors expressed in a clonal cell line. Other assays included monoamine oxidase A, monoamine oxidase B, 5-HT transporter, norepinephrine transporter, and dopamine transporter, as well as other. G-protein-coupled receptors, ion channels, enzymes, and transporters.

WT mice = test: Marble burying assay; format: in vivo, mouse; settings: 0.3 mg/kg ip
[1] = tested on: T2, Phosphodiesterase, PDE4A1A (h); test: NovaScreen enzyme assay; format: biochemical, human; settings: 1 µM
T2 construct: PerkinElmer – Caliper Life Sciences (NovaScreen service)

Endothelin, ET-A (h) = tested on: T3, Endothelin, ET-A (h); test: NovaScreen competition binding; parameters: species or system human; settings: 1 µM
T3 construct: PerkinElmer – Caliper Life Sciences (NovaScreen service)

α4β2* nAChRs = α4β2* nAChRs (Mus musculus, UniProt O70174+Q9ERK7); test: [125I]epibatidine binding, cortical membranes; parameters: from tissue; host or cells: cortical brain membranes (mouse)
Sequence of α4β2* nAChRs (O70174 31-629): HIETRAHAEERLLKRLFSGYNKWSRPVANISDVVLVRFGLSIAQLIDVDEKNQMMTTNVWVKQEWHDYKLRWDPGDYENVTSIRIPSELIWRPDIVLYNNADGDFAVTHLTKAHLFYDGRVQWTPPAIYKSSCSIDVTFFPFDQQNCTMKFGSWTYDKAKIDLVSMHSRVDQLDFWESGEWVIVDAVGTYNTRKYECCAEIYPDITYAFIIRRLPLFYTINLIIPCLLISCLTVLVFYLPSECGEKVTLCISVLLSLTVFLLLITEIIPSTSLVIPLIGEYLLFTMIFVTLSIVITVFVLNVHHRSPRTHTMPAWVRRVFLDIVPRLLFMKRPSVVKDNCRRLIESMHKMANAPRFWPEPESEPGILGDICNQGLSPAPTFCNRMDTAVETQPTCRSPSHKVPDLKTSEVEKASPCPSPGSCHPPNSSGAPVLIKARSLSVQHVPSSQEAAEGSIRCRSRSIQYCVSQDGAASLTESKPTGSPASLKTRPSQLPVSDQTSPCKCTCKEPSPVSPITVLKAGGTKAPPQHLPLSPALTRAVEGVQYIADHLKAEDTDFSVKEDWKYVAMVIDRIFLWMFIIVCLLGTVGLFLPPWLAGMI
Sequence of α4β2* nAChRs (Q9ERK7 26-501): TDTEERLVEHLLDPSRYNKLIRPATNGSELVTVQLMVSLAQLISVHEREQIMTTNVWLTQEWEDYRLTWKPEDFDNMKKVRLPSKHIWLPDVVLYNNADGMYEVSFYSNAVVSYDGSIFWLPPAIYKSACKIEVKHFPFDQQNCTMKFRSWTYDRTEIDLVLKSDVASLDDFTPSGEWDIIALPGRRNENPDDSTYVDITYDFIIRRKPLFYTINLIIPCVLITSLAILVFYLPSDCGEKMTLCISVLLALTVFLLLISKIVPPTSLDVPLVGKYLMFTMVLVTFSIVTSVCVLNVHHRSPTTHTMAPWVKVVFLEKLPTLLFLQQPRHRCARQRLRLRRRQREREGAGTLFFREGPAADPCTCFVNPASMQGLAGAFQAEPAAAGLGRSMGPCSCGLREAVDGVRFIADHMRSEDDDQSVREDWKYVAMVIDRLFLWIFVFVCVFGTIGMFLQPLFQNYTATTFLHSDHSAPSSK
Procedure: Brain membrane preparations were stored as pellets under buffer at -70°C or used immediately.

Histamine, H1 = tested on: T4, Histamine, H1; test: NovaScreen competition binding; settings: 1 µM
T4 construct: PerkinElmer – Caliper Life Sciences (NovaScreen)

Human FMO3 = test: Turnover by human flavin-containing monooxygenase 3; format: in vitro ADME; settings: 100 pmol/mL enzyme, 37 °C
Procedure: (§1) S2 Table. In vitro metabolism of TC299423, compared w ith varenicline.
(§2) Human Rat microsomes Turnover by human cytochrome P450 isoforms […]
(§3) The assay mixtures (final incubation volume of 125 μL) in 0.255 M phosphate buffer with 0.575% (w/v) KCl (pH 7.4) contained PiB (1.0 μM), […] a recombinantly expressed cytochrome P450 enzyme preparation (1A2, 2C9, 2C19, 2D6, 3A4, and FMO3) at 100 pmol/mL. After a 10 min preincubation at 37 °C, the reaction was initiated by addition of 2.0 mM NADPH and incubated for 60 min. The reactions were terminated by the addition of two volumes of DMSO. Samples were subsequently centrifuged at 4,000 rpm for 10 min. From the resulting supernatant, 10 μ L was analyzed by liquid chromatography/tandem mass spectrometry (LC-MS/MS). Control experiments were performed by substituting the active enzyme preparation by cell preparations containing no recombinant human CYP. a, Data for clearance are given as μL /min/mg protein. […]
(§4) c, Data for cytochrome P450 turnover and for human flavin- containing monooxygenase 3 (FMO3) are given as percent decline over 60 min.

[2] = tested on: Nitric Oxide, NOS (Neuronal-Binding); test: NovaScreen competition binding; settings: 1 µM
Dopamine, D2s (h) = test: NovaScreen competition binding; parameters: species or system human; settings: 1 µM
Serotonin, 5HT2A = test: NovaScreen competition binding; settings: 1 µM
Histamine, H3 = test: NovaScreen competition binding; settings: 1 µM
[3] = In vitro metabolism in microsomes; format: in vitro ADME; settings: human microsomes
[4] = tested on: Potassium Channel, Ca2+ Act., VI; test: NovaScreen competition binding; settings: 1 µM
Serotonin, 5HT2C = test: NovaScreen competition binding; settings: 1 µM
Histamine, H2 = tested on: T5, Histamine, H2; test: NovaScreen competition binding; settings: 1 µM
T5 construct: PerkinElmer – Caliper Life Sciences (NovaScreen)

Calcium Channel, Type N = test: NovaScreen competition binding; settings: 1 µM
GABA-B = tested on: T6, GABA-B; test: NovaScreen competition binding; settings: 1 µM
T6 construct: PerkinElmer – Caliper Life Sciences (NovaScreen)

CYP2D6 = test: Turnover by recombinantly expressed human cytochrome P450 isoforms; format: in vitro ADME; settings: 100 pmol/mL enzyme, 37 °C
Procedure: as §1, §2, §3, §4

CYP1A2 = test: as above; format: in vitro ADME; settings: 100 pmol/mL enzyme, 37 °C
Procedure: as §1, §2, §3, §4

CYP2C19 = test: as above; format: in vitro ADME; settings: 100 pmol/mL enzyme, 37 °C
Procedure: as §1, §2, §3, §4

CYP2C9 = test: as above; format: in vitro ADME; settings: 100 pmol/mL enzyme, 37 °C
Procedure: as §1, §2, §3, §4

CYP3A4 = test: as above; format: in vitro ADME; settings: 100 pmol/mL enzyme, 37 °C
Procedure: as §1, §2, §3, §4

[5] = tested on: Glutamate, MK-801 Site (Ionotropic); test: NovaScreen competition binding; settings: 1 µM
Leukotriene, LTB4 (BLT) = test: NovaScreen competition binding; settings: 1 µM
[6] = tested on: T7, Kinase, Protein, PKCa (h); test: NovaScreen enzyme assay; format: biochemical, human; settings: 1 µM
T7 construct: PerkinElmer – Caliper Life Sciences (NovaScreen service)

Adrenergic, Beta 2 (h) = test: NovaScreen competition binding; parameters: species or system human; settings: 1 µM
Adenosine, A2A (h) = tested on: T8, Adenosine, A2A (h); test: NovaScreen competition binding; parameters: species or system human; settings: 1 µM
T8 construct: PerkinElmer – Caliper Life Sciences (NovaScreen service)

Serotonin, 5HT6 (h) = test: NovaScreen competition binding; parameters: species or system human; settings: 1 µM
Sodium, Site 2 = test: NovaScreen competition binding; settings: 1 µM
Adenosine, A1 = tested on: T9, Adenosine, A1; test: NovaScreen competition binding; settings: 1 µM
T9 construct: PerkinElmer – Caliper Life Sciences (NovaScreen service)

C1=C(/c2cncnc2)CCCNCC/1 [TC299423, (E)-5-(pyrimidin-5-yl)-1,2,3,4,7,8-hexahydroazocine]
Hit (Serotonin, 5HT3): FALSE
Inhibition (Serotonin, 5HT3; [3H]GR 65630): 7.50%
Marbles buried compared with saline (WT mice): significantly fewer marbles
Marbles buried compared with varenicline (WT mice; p < 0.001): fewer marbles
Hit [1]: FALSE
Hit (Endothelin, ET-A (h)): FALSE
Inhibition (Endothelin, ET-A (h); [125I] Endothelin-1): 8.93%
Ki (α4β2* nAChRs; single component, cortical membranes): 0.24 ± 0.04 nM
Difference between Ki ([125I]epibatidine) and EC50 ([3H]dopamine release) (α4β2* nAChRs; α4β2 nAChRs): ~500 fold
Hit (Histamine, H1): FALSE
Inhibition (Histamine, H1; [3H]Pyrilamine): 15.56%
Turnover by Human FMO3 (Human FMO3): 17 percent decline over 60 min
Hit [2]: FALSE
Inhibition ([2]; [3H]NOARG): -10.86%
Hit (Dopamine, D2s (h)): FALSE
Inhibition (Dopamine, D2s (h); [3H]-Raclopride): -21.17%
Hit (Serotonin, 5HT2A): FALSE
Inhibition (Serotonin, 5HT2A; [3H]Ketanserin): 12.43%
Hit (Histamine, H3): FALSE
Inhibition (Histamine, H3; [3H]N-a-MeHistamine): 5.85%
Half-life compared to varenicline [3]: ~7 fold
half-life [3]: 4.75 h
microsomal CLint ([3]; read-out: Clearance): 5 µL/min/mg
Hit [4]: FALSE
Inhibition ([4]; [125I]Apamin): -2.57%
Hit (Serotonin, 5HT2C): FALSE
Inhibition (Serotonin, 5HT2C; [3H]Mesulergine): -2.21%
Hit (Histamine, H2): FALSE
Inhibition (Histamine, H2; [125I]-Aminopotentidine): 6.50%
Hit (Calcium Channel, Type N): FALSE
Inhibition (Calcium Channel, Type N; [125I]-Conotoxin GVIA): -0.60%
Hit (GABA-B): FALSE
Inhibition (GABA-B; [3H]CGP 54626A): -2.43%
Turnover by CYP2D6 (CYP2D6): 42 percent decline over 60 min
Turnover by CYP1A2 (CYP1A2): 3 percent decline over 60 min
Turnover by CYP2C19 (CYP2C19): 4 percent decline over 60 min
Turnover by CYP2C9 (CYP2C9): 8 percent decline over 60 min
Turnover by CYP3A4 (CYP3A4): 7 percent decline over 60 min
Hit [5]: FALSE
Inhibition ([5]; [3H]MK-801): 5.46%
Hit (Leukotriene, LTB4 (BLT)): FALSE
Inhibition (Leukotriene, LTB4 (BLT); [3H]LTB4): 29.86%
Hit [6]: FALSE
Inhibition ([6]; substrate Fluorescein-labeled peptide): -1.00%
Hit (Adrenergic, Beta 2 (h)): FALSE
Inhibition (Adrenergic, Beta 2 (h); [125]I-Iodo-cyanopindolol): -8.25%
Hit (Adenosine, A2A (h)): FALSE
Inhibition (Adenosine, A2A (h); [3H]CGS 21680): 1.51%
Hit (Serotonin, 5HT6 (h)): FALSE
Inhibition (Serotonin, 5HT6 (h); [3H]-LSD): 8.87%
Hit (Sodium, Site 2): FALSE
Inhibition (Sodium, Site 2; [3H]Batrachotoxin A 20-a-Benzo): 6.91%
Hit (Adenosine, A1): FALSE
Inhibition (Adenosine, A1; [3H]CPX): 7.85%
